Here are results for two cell lines from the supplement of paper PMC10307832.

What all share (assay): relative viability (nuclei count vs DMSO), 5 days (fraction); higher = more cells survive
Compound in assay [1]: CCC1=CN=CN=C1N2CCN(CC2)CC3=NC4=C(N3)C=C(C=C4)C(F)(F)F + NC(=O)Nc1cc(-c2cccc(F)c2)sc1C(=O)N[C@H]1CCCNC1 [AZD7762] (partner 0.2 µM)
The gist of the method:
(§1)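 Values are medians from duplicate plates. Each reflects relative viability, defined as the nuclei count of treated wells over that of vehicle wells. Lung cancer cell lines in 1536-well plates were pin-tool dosed one day after seeding with one drug alone or with a fixed anchor-drug dose plus five library-drug doses (not always all listed) in √10 steps, then fixed, stained and imaged at 4× after 5 days.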

Compound in assay [2]: CCC1=CN=CN=C1N2CCN(CC2)CC3=NC4=C(N3)C=C(C=C4)C(F)(F)F + O=C(CCCCCCC(=O)Nc1ccccc1)NO [Vorinostat] (partner 1 µM)
The gist of the method: as §1

Compound in assay [3]: CCn1c(-c2nonc2N)nc2cnc(Oc3cccc(NC(=O)c4ccc(OCCN5CCOCC5)cc4)c3)cc21 + CC(C)C[C@H](NC(=O)[C@H](Cc1ccccc1)NC(=O)c1cnccn1)B(O)O [Bortezomib] (partner 0.002 µM)
The gist of the method:
as §1

Compound in assay [4]: CCn1c(-c2nonc2N)nc2cnc(Oc3cccc(NC(=O)c4ccc(OCCN5CCOCC5)cc4)c3)cc21 + Cc1nc(NC(=O)N2CCC[C@H]2C(N)=O)sc1-c1ccnc(C(C)(C)C(F)(F)F)c1 [Alpelisib] (partner 2 µM)
The procedure, abridged:
as §1

With PC-14, the relative viability amounted to 0.317 in assay [1] (first compound 0.04 µM); 0.337 in assay [1] (first compound 0.1265 µM); 0.338 in assay [1] (first compound 0.4 µM); 0.387 in assay [1] (first compound 1.265 µM); 0.395 in assay [1] (first compound 4 µM); 0.764 in assay [2] (first compound 0.04 µM). Besides, the relative viability in assay [2] (first compound 0.1265 µM) worked out at 0.756; in assay [2] (first compound 0.4 µM), 0.688; in assay [2] (first compound 1.265 µM), 0.691; in assay [2] (first compound 4 µM), 0.657; in assay [3] (first compound 0.04 µM) it was 1.04; in assay [3] (first compound 0.1265 µM), 0.857. In addition, the relative viability was 0.905 in assay [3] (first compound 0.4 µM); 0.776 in assay [3] (first compound 1.265 µM); 0.729 in assay [3] (first compound 4 µM); 1.06 in assay [4] (first compound 0.04 µM); 0.935 in assay [4] (first compound 0.1265 µM); 0.871 in assay [4] (first compound 0.4 µM). Moreover, the relative viability in assay [4] (first compound 1.265 µM) stood at 0.77; in assay [4] (first compound 4 µM) it was 0.805.

For RERF-LC-KJ, the relative viability in assay [1] (first compound 0.04 µM) amounted to 0.795; in assay [1] (first compound 0.1265 µM), 0.953; in assay [1] (first compound 0.4 µM), 0.976; in assay [1] (first compound 1.265 µM), 0.97; in assay [1] (first compound 4 µM) it was 0.952; in assay [2] (first compound 0.04 µM) it was 0.638. The relative viability worked out at 0.717 in assay [2] (first compound 0.1265 µM); 0.715 in assay [2] (first compound 0.4 µM); 0.634 in assay [2] (first compound 1.265 µM); 0.704 in assay [2] (first compound 4 µM); 1.32 in assay [3] (first compound 0.04 µM); 1.31 in assay [3] (first compound 0.1265 µM). Moreover, the relative viability in assay [3] (first compound 0.4 µM) is 1.01; in assay [3] (first compound 1.265 µM), 0.731; in assay [3] (first compound 4 µM), 0.754; in assay [4] (first compound 0.04 µM) it was 0.846; in assay [4] (first compound 0.1265 µM), 0.809; in assay [4] (first compound 0.4 µM), 0.733. In addition, the relative viability came out at 0.662 in assay [4] (first compound 1.265 µM) and 0.507 in assay [4] (first compound 4 µM).
